# Assay results reported in ChEMBL document CHEMBL4673326, “Ligand-based optimization and biological evaluation of N-(2,2,2-trichloro-1-(3-phenylthioureido)ethyl)acetamide derivatives as potent intrinsically disordered protein c-Myc inhibitors” (Bioorg Med Chem Lett, 2021).
# Calls of active or inactive are those of the source. No cut-off for these calls is given here.
# System: not listed separately
# Assay: Antiproliferative activity against rat TGR-1 harboring c-Myc assessed as reduction in cell viability measured on day 3 by MTT assay
# Assay type: functional
# Conditions: TGR1, 72 h
row,SMILES,EC50
1,CCOC(=O)c1cnn(-c2ccccc2)c1NC(=O)c1cc2nc(-c3ccco3)cc(C(F)(F)Cl)n2n1,0.25 µM

# System: HL-60
# Assay: Induction of apoptosis in human HL-60 cells at 1 to 20 uM measured after 24 hrs by FITC-Annexin-v/propidium iodide staining based flow cytometry
# Assay type: functional, cell-based
# Conditions: dose 1-20 µM
row,SMILES,Activity
1,O=C(NC(NC(=S)Nc1ccc(I)cc1)C(Cl)(Cl)Cl)c1cccc(I)c1 (stereo not drawn),Active

# System: not listed separately
# Assay: Antiproliferative activity against human Mutu-1 assessed as reduction in cell viability measured after 2 hrs
# Assay type: functional
# Conditions: Mutu-1, 2 h
row,SMILES,EC50
1,CCOc1ccc2nc3cc(/N=N/c4ccc(N)nc4N)ccc3c(N)c2c1,0.5 µM

# System: ST486
# Assay: Antiproliferative activity against human ST486 assessed as reduction in cell viability measured after 2 hrs
# Assay type: functional, cell-based
# Conditions: ST486, 2 h
row,SMILES,EC50
1,CCOc1ccc2nc3cc(/N=N/c4ccc(N)nc4N)ccc3c(N)c2c1,0.5 µM

# Target: c-Myc/c-Max (Homo sapiens, UniProt P01106)
# Sequence (P01106 whole entry): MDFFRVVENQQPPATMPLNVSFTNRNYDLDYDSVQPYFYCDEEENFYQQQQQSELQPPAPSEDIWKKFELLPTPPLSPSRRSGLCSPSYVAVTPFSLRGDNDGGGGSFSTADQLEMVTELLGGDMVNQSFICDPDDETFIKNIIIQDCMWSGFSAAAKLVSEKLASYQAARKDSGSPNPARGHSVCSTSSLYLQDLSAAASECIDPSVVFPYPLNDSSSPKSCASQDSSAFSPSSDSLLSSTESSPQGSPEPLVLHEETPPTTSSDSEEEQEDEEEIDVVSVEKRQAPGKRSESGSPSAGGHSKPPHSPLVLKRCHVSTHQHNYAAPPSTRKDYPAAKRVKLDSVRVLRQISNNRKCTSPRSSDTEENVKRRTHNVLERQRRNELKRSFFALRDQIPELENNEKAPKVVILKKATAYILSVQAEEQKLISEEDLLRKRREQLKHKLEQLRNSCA
# Sequence (P61244 whole entry, further chain): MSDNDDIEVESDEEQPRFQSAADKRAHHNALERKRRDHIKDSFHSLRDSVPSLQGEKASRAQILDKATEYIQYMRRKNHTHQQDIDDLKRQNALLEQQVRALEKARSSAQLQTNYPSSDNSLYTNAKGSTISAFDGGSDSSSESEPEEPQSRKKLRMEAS
# Assay: (§1) Inhibition of Nanoluc-tagged c-Myc/Halo-tagged MAX (unknown origin) interaction expressed in HEK293T cells assessed as degradation measured after 4 to 6 hrs by NanoBRET assay
# Assay type: cell-based
# Conditions: not given
row,SMILES,EC50
1,O=C(NC(NC(=S)Nc1ccc(I)cc1)C(Cl)(Cl)Cl)c1cccc(I)c1 (stereo not drawn),29.1 µM

# Target: c-Myc/c-Max (Homo sapiens) (UniProt P01106+P61244)
# Sequence (P01106 whole entry): as the sequence (P01106 whole entry) above
# Sequence (P61244 2-160 partner limits assumed): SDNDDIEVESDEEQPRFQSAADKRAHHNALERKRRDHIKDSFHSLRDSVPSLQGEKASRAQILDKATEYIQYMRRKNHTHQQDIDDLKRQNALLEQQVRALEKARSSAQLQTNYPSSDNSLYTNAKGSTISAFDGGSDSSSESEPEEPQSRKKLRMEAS
# Assay: as §1
# Assay type: cell-based
# Conditions: time 4-6 hrs
row,SMILES,inhibition
1,O=C(NC(NC(=S)Nc1ccc(I)cc1)C(Cl)(Cl)Cl)c1cccc(I)c1 (stereo not drawn),Dose-dependent effect

# System: HL-60
# Assay: Cell cycle arrest in human HL-60 cells assessed as accumulation at S-phase at 3.125 to 6.25 uM measured after 24 hrs by propidium iodide staining based flow cytometry
# Assay type: functional
# Conditions: dose 3.125-6.25 µM
row,SMILES,Activity
1,O=C(NC(NC(=S)Nc1ccc(I)cc1)C(Cl)(Cl)Cl)c1cccc(I)c1 (stereo not drawn),Active

# Target: Myc proto-oncogene protein (Homo sapiens) (UniProt P01106)
# Sequence (P01106 whole entry): as the sequence (P01106 whole entry) above
# Assay: Induction of c-Myc degradation in human HL-60 cells assesses as decrease in c-Myc protein level measured after 24 hrs by Western blot analysis
# Assay type: cell-based
# Conditions: dose 3.125-25 µM
row,SMILES,Activity
1,O=C(NC(NC(=S)Nc1ccc(I)cc1)C(Cl)(Cl)Cl)c1cccc(I)c1 (stereo not drawn),Dose-dependent effect

# System: Daudi
# Assay: Antiproliferative activity against human Daudi assessed as reduction in cell viability measured after 2 hrs
# Assay type: functional, cell-based
# Conditions: not given
row,SMILES,EC50
1,CCOc1ccc2nc3cc(/N=N/c4ccc(N)nc4N)ccc3c(N)c2c1,0.5 µM

# System: HL-60
# Assay: Antiproliferative activity against human HL-60 cells assessed as inhibition of cell proliferation incubated for 72 hrs
# Assay type: functional, cell-based
# Conditions: HL-60, 72 h
row,SMILES,EC50
1,CCOC(=O)NC(NC(=S)Nc1c(Cl)cc(Cl)cc1Cl)C(Cl)(Cl)Cl (stereo not drawn),42.8 µM
2,O=C(NC(NC(=S)Nc1ccc(Cl)cc1Cl)C(Cl)(Cl)Cl)c1ccccc1 (stereo not drawn),9.1 µM
3,O=C(NC(NC(=S)Nc1ccc(Br)cc1)C(Cl)(Cl)Cl)OCc1ccccc1 (stereo not drawn),6.1 µM
4,COC(=O)c1ccc(NC(=S)NC(NC(=O)c2ccccc2C)C(Cl)(Cl)Cl)cc1 (stereo not drawn),14.3 µM
5,COC(=O)c1ccc(NC(=S)NC(NC(=O)c2cccc3ccccc23)C(Cl)(Cl)Cl)cc1 (stereo not drawn),7.3 µM
6,O=C(CF)NC(NC(=S)Nc1ccc(Cl)cc1)C(Cl)(Cl)Cl (stereo not drawn),24.8 µM
7,Cc1ccc(NC(=S)NC(NC(=O)CC(C)C)C(Cl)(Cl)Cl)cc1 (stereo not drawn),33.7 µM
8,CCOC(=O)NC(NC(=S)Nc1ccc(I)cc1)C(Cl)(Cl)Cl (stereo not drawn),9.9 µM
9,O=C(NC(NC(=S)Nc1ccc(Cl)cc1Cl)C(Cl)(Cl)Cl)OCc1ccccc1 (stereo not drawn),10.6 µM
10,Cc1ccc(NC(=S)NC(NC(=O)c2ccc(Br)cc2)C(Cl)(Cl)Cl)cc1 (stereo not drawn),17.2 µM
11,O=C(NC(NC(=S)Nc1ccccc1)C(Cl)(Cl)Cl)OCc1ccccc1 (stereo not drawn),16.7 µM
12,O=C(NC(NC(=S)Nc1ccc(Cl)cc1)C(Cl)(Cl)Cl)OCc1ccccc1 (stereo not drawn),6.1 µM
13,CCOC(=O)NC(NC(=S)Nc1ccc(C)cc1)C(Cl)(Cl)Cl (stereo not drawn),> 50 µM
14,Cc1ccc(NC(S)=NC(NC(=O)N(C)C)C(Cl)(Cl)Cl)cc1 (stereo not drawn),> 50 µM
15,O=C(/C=C/c1ccccc1)NC(NC(=S)Nc1cccc2ccccc12)C(Cl)(Cl)Cl (stereo not drawn),3.4 µM
16,CC(C)C(=O)NC(NC(=S)Nc1ccc(Cl)cc1)C(Cl)(Cl)Cl (stereo not drawn),> 100 µM
17,Cc1ccc(N=C(S)NC(NC(=O)c2ccccc2)C(Cl)(Cl)Cl)c(C)c1 (stereo not drawn),8.1 µM
18,O=C(NC(NC(=S)Nc1ccc(I)cc1)C(Cl)(Cl)Cl)c1cccc(I)c1 (stereo not drawn),3.3 µM
19,COc1ccc(NC(=S)NC(NC(=O)OCc2ccccc2)C(Cl)(Cl)Cl)cc1 (stereo not drawn),> 50 µM
20,Cc1ccccc1N=C(S)NC(NC(=O)CF)C(Cl)(Cl)Cl (stereo not drawn),> 100 µM
21,O=C(CF)NC(NC(=S)Nc1ccccc1Cl)C(Cl)(Cl)Cl (stereo not drawn),> 50 µM
22,Cc1ccc(NC(=S)NC(NC(=O)c2ccccc2)C(Cl)(Cl)Cl)cc1 (stereo not drawn),4.2 µM
23,O=C(NC(NC(=S)Nc1ccc(F)cc1)C(Cl)(Cl)Cl)OCc1ccccc1 (stereo not drawn),11.7 µM
24,Cc1cccc(NC(=S)NC(NC(=O)c2ccccc2C)C(Cl)(Cl)Cl)c1 (stereo not drawn),22.9 µM
25,COc1ccc(NC(=S)NC(NC(=O)Cc2ccccc2)C(Cl)(Cl)Cl)cc1 (stereo not drawn),> 50 µM

row,SMILES,EC50
1,COC(=O)c1ccccc1NC(=S)NC(NC(=O)c1ccc(C)cc1)C(Cl)(Cl)Cl (stereo not drawn),23.1 µM
2,O=C(NC(NC(=S)Nc1cccc2ccccc12)C(Cl)(Cl)Cl)OCc1ccccc1 (stereo not drawn),6.9 µM
3,Cc1ccc(NC(=S)NC(NC(=O)OCc2ccccc2)C(Cl)(Cl)Cl)cc1 (stereo not drawn),24.9 µM
4,Cc1ccccc1C(=O)NC(NC(=S)Nc1ccccc1I)C(Cl)(Cl)Cl (stereo not drawn),13.8 µM
5,NS(=O)(=O)c1ccc(NC(=S)NC(NC(=O)c2ccccc2)C(Cl)(Cl)Cl)cc1 (stereo not drawn),> 50 µM
6,O=C(Cc1ccccc1)NC(NC(=S)Nc1ccc(Cl)c(Cl)c1)C(Cl)(Cl)Cl (stereo not drawn),32.5 µM
7,O=C(NC(NC(=S)Nc1ccc(Cl)cc1)C(Cl)(Cl)Cl)c1ccccc1Cl (stereo not drawn),5.9 µM
8,O=C(NC(NC(=S)Nc1ccc(Cl)cc1)C(Cl)(Cl)Cl)c1ccccc1 (stereo not drawn),5 µM
9,Cc1cccc(NC(=S)NC(NC(=O)c2ccccc2)C(Cl)(Cl)Cl)c1 (stereo not drawn),10.6 µM
10,CCCCCCCCC(=O)NC(NC(=S)Nc1ccccc1C)C(Cl)(Cl)Cl (stereo not drawn),> 100 µM
11,O=C(NC(NC(=S)Nc1cccc(Cl)c1)C(Cl)(Cl)Cl)OCc1ccccc1 (stereo not drawn),8.3 µM
12,Cc1cccc(NC(=S)NC(NC(=O)Cc2ccccc2)C(Cl)(Cl)Cl)c1 (stereo not drawn),> 100 µM
13,CCCCCC(=O)NC(NC(=S)Nc1ccc(C)cc1)C(Cl)(Cl)Cl (stereo not drawn),> 50 µM
14,COc1ccccc1NC(=S)NC(NC=O)C(Cl)(Cl)Cl (stereo not drawn),> 100 µM
15,Cc1ccc(NC(=S)NC(NC(=O)Cc2ccccc2)C(Cl)(Cl)Cl)cc1 (stereo not drawn),> 50 µM
16,Cc1ccccc1C(=O)NC(NC(=S)Nc1ccccc1)C(Cl)(Cl)Cl (stereo not drawn),10.8 µM
17,O=C(NCNC(=S)Nc1ccc(Cl)cc1)c1ccccc1,> 50 µM
18,CC(=O)Nc1ccc(NC(=S)NC(NC(=O)c2ccccc2C)C(Cl)(Cl)Cl)cc1 (stereo not drawn),> 50 µM
19,O=C(NC(NC(=S)Nc1ccc(Cl)c(Cl)c1)C(Cl)(Cl)Cl)OCc1ccccc1 (stereo not drawn),8.2 µM
20,CC(=O)NC(NC(=S)Nc1c(Cl)cc(Cl)cc1Cl)C(Cl)(Cl)Cl (stereo not drawn),24 µM
21,Cc1cccc(NC(=S)NC(NC(=O)CF)C(Cl)(Cl)Cl)c1 (stereo not drawn),> 100 µM
22,Cc1ccccc1C(=O)NC(NC(=S)Nc1ccc(Cl)c(Cl)c1)C(Cl)(Cl)Cl (stereo not drawn),4.5 µM
23,Cc1ccc(C(=O)NC(NC(=S)Nc2cc(C(F)(F)F)ccc2Cl)C(Cl)(Cl)Cl)cc1 (stereo not drawn),8.7 µM
24,COC(=O)c1ccc(NC(=S)NC(NC(=O)OCc2ccccc2)C(Cl)(Cl)Cl)cc1 (stereo not drawn),10.2 µM
